From patent US9376387B2 (priority 2013, dated 2016) come the findings set out here.

Experiment [1] concerns the target T1, hAChE (human erythrocyte membranes as a AChE source) (Homo sapiens, UniProt P22303).
T1 construct: human erythrocyte membranes as a AChE source; from tissue; host or cells: human erythrocyte membranes
The experiment can be described thus: acetylcholinesterase (AChE) activity, modified Ellman method. The format is biochemical. As to conditions: hAChE IC50, modified Ellman method, acetylthiocholine iodide substrate, pH=7.4. On the technique in general: In Ellman's method for cholinesterases, released thiocholine reacts with DTNB.

A further experiment has as its target EqBuChE (Equus caballus, UniProt P81908). As to the kind of experiment: biochemical. As to conditions: EqBuChE IC50.

pIC50: −log10 of the molar value.

Sequence of EqBuChE (P81908 whole entry): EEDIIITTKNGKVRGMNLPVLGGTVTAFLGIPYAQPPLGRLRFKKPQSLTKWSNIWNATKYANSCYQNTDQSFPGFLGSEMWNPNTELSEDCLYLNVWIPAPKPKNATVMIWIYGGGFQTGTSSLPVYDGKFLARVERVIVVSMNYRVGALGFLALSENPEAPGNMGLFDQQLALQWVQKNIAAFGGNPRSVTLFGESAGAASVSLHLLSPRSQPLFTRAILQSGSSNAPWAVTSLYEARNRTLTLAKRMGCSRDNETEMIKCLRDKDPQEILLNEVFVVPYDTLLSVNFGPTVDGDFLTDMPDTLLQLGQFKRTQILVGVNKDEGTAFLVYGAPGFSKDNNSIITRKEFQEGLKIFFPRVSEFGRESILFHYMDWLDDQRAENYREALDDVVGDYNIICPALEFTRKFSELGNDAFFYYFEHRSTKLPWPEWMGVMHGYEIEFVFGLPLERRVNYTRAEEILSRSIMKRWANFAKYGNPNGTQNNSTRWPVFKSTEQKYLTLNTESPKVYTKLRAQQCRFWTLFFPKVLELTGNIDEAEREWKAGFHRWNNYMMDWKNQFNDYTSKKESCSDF
T1 sequence (P22303 32-617 isoform P22303-2 limits assumed): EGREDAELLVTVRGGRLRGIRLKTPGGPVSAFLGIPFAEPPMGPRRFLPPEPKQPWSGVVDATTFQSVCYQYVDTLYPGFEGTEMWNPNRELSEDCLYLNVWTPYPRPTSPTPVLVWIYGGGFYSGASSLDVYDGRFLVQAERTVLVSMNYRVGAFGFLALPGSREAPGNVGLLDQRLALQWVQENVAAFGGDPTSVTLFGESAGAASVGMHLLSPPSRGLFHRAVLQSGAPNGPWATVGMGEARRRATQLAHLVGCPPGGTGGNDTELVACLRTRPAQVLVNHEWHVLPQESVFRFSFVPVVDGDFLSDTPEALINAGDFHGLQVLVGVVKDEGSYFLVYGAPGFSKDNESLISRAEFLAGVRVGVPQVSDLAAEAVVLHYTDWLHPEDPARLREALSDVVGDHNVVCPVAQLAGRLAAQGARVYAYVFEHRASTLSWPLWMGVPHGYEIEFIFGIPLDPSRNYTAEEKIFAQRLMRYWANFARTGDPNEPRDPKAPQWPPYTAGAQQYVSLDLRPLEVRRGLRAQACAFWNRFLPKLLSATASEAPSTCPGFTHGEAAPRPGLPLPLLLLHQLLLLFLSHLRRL

For the molecule `COc1ccc2c(c1)CCC(Cc1cc[n+](Cc3ccccc3)cc1C(C)=O)C2=O` (stereo not drawn) [Compound 119, 2-[(3-acetyl-1-benzyl-pyridin-1-ium-4-yl)methyl]-6-methoxy-tetralin-1-one bromide], the pIC50 was 7.15 in experiment [1] and 6.39 against EqBuChE.
In the same order, the values of `COc1ccc2c(c1)CCC(Cc1cc[n+](Cc3ccc(Cl)cc3)cc1C(C)=O)C2=O` (stereo not drawn) [Compound 131, 2-[[3-acetyl-1-[(4-chlorophenyl)methyl]pyridin-1-ium-4-yl]methyl]-6-methoxy-tetralin-1-one bromide] are 6.25 and 5.22.
For `COc1ccc2c(c1)CCC(Cc1cc[n+](Cc3cccc(C(F)(F)F)c3)cc1C(C)=O)C2=O` (stereo not drawn) [Compound 124, 2-[[3-acetyl-1-[[3-(trifluoromethyl)phenyl]methyl]pyridin-1-ium-4-yl]methyl]-6-methoxy-tetralin-1-one bromide], in that order: 6.51 and 5.66.
For `COc1ccc2c(c1)CCC(Cc1cc[n+](Cc3ccccc3Cl)cc1C(C)=O)C2=O` (stereo not drawn) [Compound 126, 2-[[3-acetyl-1-[(2-chlorophenyl)methyl]pyridin-1-ium-4-yl]methyl]-6-methoxy-tetralin-1-one bromide], in that order: 7.54 and 6.59.
In the case of `COc1ccc2c(c1)CCC(Cc1cc[n+](Cc3cccc(Cl)c3)cc1C(C)=O)C2=O` (stereo not drawn) [Compound 122, 2-[[3-acetyl-1-[(3-chlorophenyl)methyl]pyridin-1-ium-4-yl]methyl]-6-methoxy-tetralin-1-one bromide], the pIC50 in experiment [1] is 7.15; against EqBuChE, 6.30.
In the same order, the values of `COc1cc2c(cc1OC)C(=O)C(Cc1cc[n+](Cc3cccc(C)c3)cc1Br)C2` (stereo not drawn) [Compound 146, 2-[[3-bromo-1-(m-tolylmethyl)pyridin-1-ium-4-yl]methyl]-5,6-dimethoxy-indan-1-one bromide] are 9.33 and 5.41.
On to `COc1cc2c(cc1OC)C(=O)C(Cc1cc[n+](Cc3ccccc3C)cc1Br)C2` (stereo not drawn) [Compound 141, 2-[[3-bromo-1-(o-tolylmethyl)pyridin-1-ium-4-yl]methyl]-5,6-dimethoxy-indan-1-one bromide], for which the pIC50 in experiment [1] is 10.28; at EqBuChE it was 5.64.
`COc1ccc2c(c1)CCC(Cc1cc[n+](Cc3cccc(C)c3)cc1C(C)=O)C2=O` (stereo not drawn) [Compound 120, 2-[[3-acetyl-1-(m-tolylmethyl)pyridin-1-ium-4-yl]methyl]-6-methoxy-tetralin-1-one bromide]: the results for the pIC50 (in experiment [1]; against EqBuChE) were 6.96 and 6.22, respectively.
In the same order, the values of `COc1ccc2c(c1)CCC(Cc1cc[n+](Cc3ccccc3C)cc1C(C)=O)C2=O` (stereo not drawn) [Compound 121, 2-[[3-acetyl-1-(o-tolylmethyl)pyridin-1-ium-4-yl]methyl]-6-methoxy-tetralin-1-one bromide] are 8.00 and 6.36.
For `COc1ccc2c(c1)CCC(Cc1cc[n+](Cc3ccccc3F)cc1C(C)=O)C2=O` (stereo not drawn) [Compound 127, 2-[[3-acetyl-1-[(2-fluorophenyl)methyl]pyridin-1-ium-4-yl]methyl]-6-methoxy-tetralin-1-one bromide], in that order: 7.37 and 6.31.
For `CC(=O)c1c[n+](Cc2ccccc2C)ccc1CC1Cc2cc3c(cc2C1=O)OCO3` (stereo not drawn) [Compound 139, 6-[[3-acetyl-1-(o-tolylmethyl)pyridin-1-ium-4-yl]methyl]-5,6-dihydrocyclopenta[f][1,3]benzodioxol-7-one bromide], in that order: 7.22 and 5.79.
In the case of `COc1ccc2c(c1)CCC(Cc1cc[n+](Cc3cccc(F)c3)cc1C(C)=O)C2=O` (stereo not drawn) [Compound 128, 2-[[3-acetyl-1-[(3-fluorophenyl)methyl]pyridin-1-ium-4-yl]methyl]-6-methoxy-tetralin-1-one bromide], the pIC50 in experiment [1] is 7.26; against EqBuChE, 6.39.

As a reminder, the pIC50 is −log10 of the IC50, conventionally taken in molar units. Low readings indicate a high IC50, high ones a low IC50.
